Assay results reported in patent US20210199640A1, “Methods of Normalizing Aberrant Glycolytic Metabolism in Cancer Cells” (The Board of Trustees of the Leland Stanford Junior …, priority 2019, published 2021).

Test system: PKM2
Test: [18F]DASA-23 cellular uptake as measure of PKM2 expression in U87 GBM cells
Format: cell-based, Human
Experimental: [18F]DASA-23 can be used to detect changes in GBM metabolism in response to TMZ and TTFields therapies. In one experiment, Human U87 GBM cells were subjected to 200 kHz TTFields, the IC50 of TMZ, or vehicle for three or six days (n≥3/condition), followed by evaluation of [18F]DASA-23 uptake (e.g., FIGS. 2 and 6). Immunofluorescence for PKM2 was performed to confirm the [18F]DASA-23 uptake results. (e.g., FIG. 9). Western blot analysis was performed to determine the effect of TMZ and TTFields exposure on the expression of PKM2. 2-way ANOVA with multiple comparisons was performed. (e.g., FIG. 8). Data are reported as mean±SD.
The ability of [18F]DASA-23 to detect changes in metabolism in response to TMZ and TTFields therapies, in cell culture and an orthotopic murine model of human GBM (FIG. 6) was evaluated. There was a significant interaction between the treatment (vehicle, TMZ, or TTFields) and treatment duration (3 or 6 days) on PKM2 expression as measured by cellular uptake of [18F]DASA-23 (p=0.005, 2-way ANOVA) (FIG. 6).

[1] = U87 cells, after exposure to TTFields, over 60 minutes, FIG. 7

Compound	reduction of PKM2 expression (U87 glioblastoma cells, over a 30 minute period, after treatment with chemotherapy (TMZ), FIG. 6)	reduction of [18F]DASA-23 uptake (U87 cells, after exposure to TTFields, over 30 minutes, FIG. 7)	reduction of [18F]DASA-23 retention [1]	reduction of [18F]DASA-23 uptake [1]
Cn1nnc2c(C(N)=O)ncn2c1=O [TMZ, Temozolomide]	at least 10%	–	–	–
COc1ccc(S(=O)(=O)N2CCN(S(=O)(=O)c3c(F)cccc3[18F])CC2)cc1 [[18F]DASA-23, 1-((2-fluoro-6-[18F]fluorophenyl)sulfonyl)-4-((4-methoxyphenyl)sulfonyl)piperazine]	–	at least 5%	at least 20%	at least 10%
